Results on 1 compound are retold here after US11111218B2, “Crystalline form of 5-amino-2,3-dihydrophthalazine-1,4-dione” (METRIOPHARM AG, priority 2016, dated 2021).

Each structure is given as a SMILES string.

The conditions of the series: TG-DSC. An excerpt: Upper trace: Mass loss determined by TG. Lower trace: Heat flow determined by DSC

As to `Nc1cccc2c(=O)[nH][nH]c(=O)c12` [Form II, 5-amino-2,3-dihydrophthalazine-1,4-dione], the “thermal stability up to” value (crystalline solid) is “up to 320±1 °C”. Also, the “solid state transformation to other forms” value (until thermal degradation of the crystalline compound sets in) is listed as “no solid state transformation to other forms is observed”.
